Laboratory results taken from patent EP4556004A1 (priority 2023, dated 2025).

System: SARS-CoV-2
Test: SARS-CoV-2 antiviral assay (dose-response, automated confocal imaging of infected cells)
Type: cell-based, severe acute respiratory syndrome coronavirus-2
Details: SARS-CoV-2, Vero81-derived F1G-red cells, MOI 0.2, 16 h, compounds at 1.56-25 µM
Procedure: Dose-response experiments were conducted to determine half-maximal inhibitory concentration, IC50 of the compounds on severe acute respiratory syndrome coronavirus-2 (SARS-CoV-2). Vero81-derived F1G-red cells seeded in 384-well plate were inoculated with SARS-CoV-2 at a multiplicity of infection (MOI) of 0.2, at 37°C, in the presence of each compound at 1.56, 3.13, 6.25, 12.5 and 25 µM. Images were acquired 16 h later using an InCell-6500 automated confocal microscope (Cytiva, Marlborough, United States). Infected cells and total cell numbers were quantified as previously described. Percentage of infection relative to the DMSO controls were obtained and IC50 were calculated using Prism 10 software (Graph Pad Inc., La Jolla, CA, USA). […] Table 2. IC50 of pure and synthetic compounds on SARS-CoV-2

[1] = Severe acute respiratory syndrome coronavirus 2, 16 h

Row | Compound | IC50 [1] | IC50
1 | CCC(=O)C1=C(O)C(CC=C(C)C)=C(O)C(CC=C(C)C)(CC=C(C)C)C1=O [AH17-F2, 3,5-dihydroxy-4,6,6-tris(3-methylbut-2-en-1-yl)-2-propionylcyclohexa-2,4-dien-1-one] | > 25 µM | 
2 | CCC(C)CC(=O)C1=C(O)C(CC=C(C)C)=C(O)C(CC=C(C)C)(CC=C(C)C)C1=O (centres unmarked) [AH40-F1, 3,5-dihydroxy-4,6,6-tris(3-methylbut-2-en-1-yl)-2-(3-methylpentanoyl)cyclohexa-2,4-dien-1-one] | > 25 µM | 
3 | CC(C)=CCC1(CC=C(C)C)C(=O)C(C(=O)C(C)C)=C(O)C(C(=O)C(C)C)=C1O [AH66-F1, 1,1'-(2,4-dihydroxy-5,5-bis(3-methylbut-2-en-1-yl)-6-oxocyclohexa-1,3-diene-1,3-diyl)bis(2-methylpropan-1-one)] | < 25 µM | 
4 | CCC(C)C(=O)C1=C(O)C(CC=C(C)C)=C(O)C(CC=C(C)C)(CC=C(C)C)C1=O (centres unmarked) [AH8-F2, 3,5-dihydroxy-4,6,6-tris(3-methylbut-2-en-1-yl)-2-(2-methylbutanoyl)cyclohexa-2,4-dien-1-one] | < 25 µM | 
5 | CC(=O)C1=C(O)C(CC=C(C)C)=C(O)C(CC=C(C)C)(CC=C(C)C)C1=O [AH16-F2, 2-acetyl-3,5-dihydroxy-4,6,6-tris(3-methylbut-2-en-1-yl)cyclohexa-2,4-dien-1-one] | > 25 µM | 
6 | CC(C)=CCC1=C(O)C(CC=C(C)C)(CC=C(C)C)C(=O)C(C(=O)C(C)C)=C1O [LB.70-F2, 3,5-dihydroxy-4,6,6-tris(3-methylbut-2-en-1-yl)-2-(2-methylpropanoyl)cyclo-hexa-2,4-dien-1-one] |  | < 7 µM
7 | CC(C)=CCC1=C(O)C(C(=O)CC(C)C)=C(O)C(CC=C(C)C)(CC=C(C)C)C1=O [Lupulone] | < 7 µM | 
8 | CC(C)=CCc1c(O)cc(O)c(C(=O)C(C)C)c1O [AH62-F2, 2-methyl-1-(2,4,6-trihydroxy-3-(3-methylbut-2-en-1-yl)phenyl)propan-1-one] | < 7 µM | 
9 | CC(C)=CCC1=C(O)C(CC=C(C)C)(CC=C(C)C)C(=O)C(C(=O)C=Cc2ccccc2)=C1O [AH41-F1, 2-cinnamoyl-3,5-dihydroxy-4,6,6-tris(3-methylbut-2-en-1-yl)cyclohexa-2,4-dien-1-one] | < 25 µM | 
10 | CCCCC(=O)C1=C(O)C(CC=C(C)C)=C(O)C(CC=C(C)C)(CC=C(C)C)C1=O [AH18-F4, 3,5-dihydroxy-4,6,6-tris(3-methylbut-2-en-1-yl)-2-pentanoylcyclohexa-2,4-dien-1-one] | < 14 µM | 
11 | CCCC(=O)C1=C(O)C(CC=C(C)C)=C(O)C(CC=C(C)C)(CC=C(C)C)C1=O [AH10-F2, 2-butyryl-3,5-dihydroxy-4,6,6-tris(3-methylbut-2-en-1-yl)cyclohexa-2,4-dien-1-one] | < 14 µM | 
12 | CC(C)=CCC1=C(O)C(CC=C(C)C)(CC=C(C)C)C(=O)C(C(=O)CCC(C)C)=C1O [AH39-F1, 3,5-dihydroxy-4,6,6-tris(3-methylbut-2-en-1-yl)-2-(4-methylpentanoyl)cyclohexa-2,4-dien-1-one] | < 25 µM | 
13 | CC(C)=CCC1=C(O)C(C(=O)C(C)C)=C(O)C(CC=C(C)C)(CC=C(C)C)C1=O [Colupulone, Co-lupulone] |  | < 7 µM
14 | CC(C)=CCC1=C(O)C(CC=C(C)C)(CC=C(C)C)C(=O)C(C(=O)C(C)C)=C1O [AH15-F1, 3,5-dihydroxy-2-isobutyryl-4,6,6-tris(3-methylbut-2-en-1-yl)cyclohexa-2,4-dien-1-one] | < 14 µM | 
